Assay results reported in patent US20220033407A1, “N-(pyridin-2-ylsulfonyl)cyclopropanecarboxamide Derivatives and their Use in the Treatment of Disease” (NOVARTIS AG, priority 2018, published 2022).

Assays:
[1] = target: T1, delF508-CFTR (Homo sapiens, UniProt P13569, DEL508-508); experiment: delF508-CFTR functional activity in primary human bronchial epithelial cells (HBECs), Multi-Transepithelial Clamp Circuit (MTECC-24) assay, equivalent short circuit current; format: cell-based; details: primary CF HBECs; for MTECC24 CFHBEC-Amax %: relative to reference combination 2 μM 3-(6-(1-(2,2-difluorobenzo[d][1,3]dioxol-5-yl)cyclopropane-1-carboxamido)-3-methylpyridin-2-yl)benzoic acid (24 h) + 0.5 μM N-(2,4-di-tert-butyl-5-hydroxyphenyl)-4-oxo-1,4-dihydroquinoline-3-carboxamide; for EC50: test compound added 24 h before assay, potentiator (S)-3-amino-6-methoxy-N-(3,3,3-trifluoro-2-hydroxy-2-methylpropyl)-5-(trifluoromethyl)picolinamide present at assay, mean of at least two replicates, read-out: MTECC24 CFHBEC-EC50
T1 construct: functional activity of the CFTR channel (Chloride ion transport) in patient derived primary human bronchial epithelial cells; host or cells: patient-derived primary human bronchial epithelial cells (HBECs), delF508-CFTR
Description: Measurement of delF508-CFTR Functional Activity in Primary Human Bronchial Epithelial Cells (HBECs) Using Multi-Transepithelial Clamp Circuit (MTECC-24) Assay
This assay measures the functional activity of the CFTR channel (Chloride ion transport) in patient derived primary human bronchial epithelial cells with forskolin activation and in the presence of the CFTR corrector wherein the corrector is a compound of the invention and the potentiator is (S)-3-amino-6-methoxy-N-(3,3,3-trifluoro-2-hydroxy-2-methylpropyl)-5-(trifluoromethyl)picolinamide.
Primary human delF508-CFTR bronchial epithelial cells were purchased from Asterand and cultured according to previously established methods (Fulcher et al. (2005) Methods Mol Med 107: 183-206). Briefly, vendor supplied cells were rapidly defrosted and added to a T175 flask in 50 mL growth media (Lonza BEBM media with Lonza BEGM singlequots). Media was replaced after 24 h and then cells were fed every other day until cells were 80-90% confluent, at which point cells were cryopreserved. These P1 vials were thawed at 37° C. as needed and added to T175 flasks in 50 mL growth media at 5×10^5 cells/flask. Media was replaced after 24 h, and then cells were fed every other day until 80-90% confluent. Cells were lifted with 5 mL Accutase at 37° C. for 5 minutes, centrifuged at 1000 rpms for 5 min (300 g), and resuspended in differentiation media (50% BEBM in DMEM, BEGM singlequots, all trans retinoic acid (5×10·8M)). Cells were then counted and cell suspension was added to collagen coated inserts at 3×10^4 cells/insert in 0.15 mL with 0.5 mL differentiation media on the basolateral side.
Apical and basolateral media were replaced on alternate days, and following day 7 (or when confluent plus 2 days), air liquid interface was established for approximately two weeks by removal of apical media. One day prior to use on the MTECC24 system (EP-Devices, EP Design, Belgium), 0.15 mL of warmed (37° C.) PBS was added to the apical surface of the cultures and returned to humidifier (37° C., 5% CO2 incubator) for 30 min before aspirating the apical surface to remove any mucus.
Compound treatments were then prepared. Compound dilutions, typically a 10 point concentration response with 1 in 3 dilution steps, were made in 100% DMSO before dilution 1 in 1000 into differentiation medium with a final DMSO concentration of 0.1% or 0.2% for the study. Compound containing medium was then transferred into the wells of a 24 well plate at 0.5 mL per well and warmed for 30 min in a 37° C. incubator prior to transferring washed inserts into the compound containing plates. Cells were incubated in compound containing medium (basolateral only) for 24 h prior to measurement in the MTECC24 system.
Following 24 hr treatment, compound dilutions were prepared again, diluted 1 in 1000 into 37° C. assay medium (F-12 Coon's modified, 20 mM HEPES pH7.4 with TRIS Base, No FCS or bicarbonate). Cells which were treated for 24 h with test compound were then transferred into plates containing 0.75 mL compound treatment in assay medium (basolateral) and 0.25 mL of the compound containing assay medium was added to the apical surface. The plates were then transferred to the heated plate compartments of the MTECC24 system for 45 min prior to measurements (this can also be done in a non-CO2 37° C. humidified incubator). Basolateral temperature should not exceed 36.5° C. and apical temperature should be approximately 35.5° C.
Modulators were added sequentially as follows while the MTECC24 instrument recorded the equivalent short circuit current (Ieq)
Prior to dilution into F-12 medium the stocks are as follows: Amiloride stock is 10 mM in H2O
Forskolin Stock is 10 mM in 100% DMSO
(S)-3-amino-6-methoxy-N-(3,3,3-trifluoro-2-hydroxy-2-methylpropyl)-5-(trifluoromethyl)picolinamide is 0.5 mM stock in 100% DMSO INH-172 (4-[[4-Oxo-2-thioxo-3-[3-trifluoromethyl)phenyl]-5-thiazolidinylidene]methyl]benzoic acid) stock is 30 mM in 100% DMSO […]

[2] = target: T2, delF508-CFTR-HRP (Homo sapiens, UniProt P13569, DEL508-508); experiment: Measurement of delF508-CFTR-HRP surface expression in CFBE41o- cells (HRP luminescence); format: cell-based; details: for Emax: CFBE41o-, read-out: DelF508-CFTR-HRP Amax %; for EC50: mean of at least two replicates;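 on DelF508-CFTR-HRP Amax %: percent efficacy relative to a reference CFTR corrector compound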
T2 construct: expressed in transfected cells
Outline: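 Stably transfected CFBE41o- cells carrying HRP in the fourth extracellular loop of delF508-CFTR, induced with 500 ng/mL doxycycline for 48 h, then compound-treated 24 h at 37° C (10-point, 3-fold, top 10 μM). Surface HRP detected by luminescent substrate; EC50 from logistic fit, triplicates, normalized to lowest-concentration median.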

T2 sequence (P13569 with tags, fused parts or gaps DEL508-508): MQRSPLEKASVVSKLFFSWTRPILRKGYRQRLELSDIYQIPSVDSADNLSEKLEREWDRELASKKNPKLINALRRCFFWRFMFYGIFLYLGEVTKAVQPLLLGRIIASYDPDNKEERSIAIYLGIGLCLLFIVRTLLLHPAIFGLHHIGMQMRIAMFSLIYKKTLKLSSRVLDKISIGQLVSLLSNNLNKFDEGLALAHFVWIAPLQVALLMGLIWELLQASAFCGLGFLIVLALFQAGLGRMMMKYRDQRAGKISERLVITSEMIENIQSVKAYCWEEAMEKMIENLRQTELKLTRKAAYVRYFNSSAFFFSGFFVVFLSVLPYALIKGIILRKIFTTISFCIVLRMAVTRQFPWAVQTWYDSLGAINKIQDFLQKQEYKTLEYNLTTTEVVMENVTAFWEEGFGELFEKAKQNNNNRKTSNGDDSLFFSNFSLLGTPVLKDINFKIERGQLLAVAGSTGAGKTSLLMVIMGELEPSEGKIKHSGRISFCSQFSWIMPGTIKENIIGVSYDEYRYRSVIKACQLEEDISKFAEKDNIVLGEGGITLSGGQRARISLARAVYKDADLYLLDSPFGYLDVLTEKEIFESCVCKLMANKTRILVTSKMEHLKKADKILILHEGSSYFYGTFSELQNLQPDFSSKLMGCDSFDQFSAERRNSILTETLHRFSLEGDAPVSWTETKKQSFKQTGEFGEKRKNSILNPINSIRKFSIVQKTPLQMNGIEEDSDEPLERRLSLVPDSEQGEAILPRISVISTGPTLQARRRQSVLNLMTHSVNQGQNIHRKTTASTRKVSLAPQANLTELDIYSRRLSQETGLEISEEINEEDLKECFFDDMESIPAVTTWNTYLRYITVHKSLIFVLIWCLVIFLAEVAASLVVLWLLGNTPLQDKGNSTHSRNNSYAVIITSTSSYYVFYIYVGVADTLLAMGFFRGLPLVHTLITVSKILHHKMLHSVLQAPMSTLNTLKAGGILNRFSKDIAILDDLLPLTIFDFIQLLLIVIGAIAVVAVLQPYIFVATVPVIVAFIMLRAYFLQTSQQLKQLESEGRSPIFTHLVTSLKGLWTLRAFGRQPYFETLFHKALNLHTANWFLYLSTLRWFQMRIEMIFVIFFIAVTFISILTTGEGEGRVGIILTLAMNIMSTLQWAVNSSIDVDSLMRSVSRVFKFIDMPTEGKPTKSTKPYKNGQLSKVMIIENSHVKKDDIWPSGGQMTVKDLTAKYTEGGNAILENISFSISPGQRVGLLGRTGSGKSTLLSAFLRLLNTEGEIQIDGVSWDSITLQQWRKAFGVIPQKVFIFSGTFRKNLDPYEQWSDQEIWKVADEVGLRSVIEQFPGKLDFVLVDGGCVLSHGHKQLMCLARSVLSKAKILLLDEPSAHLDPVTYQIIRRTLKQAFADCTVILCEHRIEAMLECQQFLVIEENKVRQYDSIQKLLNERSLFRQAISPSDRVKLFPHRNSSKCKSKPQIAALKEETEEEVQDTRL
T1 sequence (P13569 with tags, fused parts or gaps DEL508-508): as above

Structure (SMILES)	MTECC24 CFHBEC-Amax % [1]	EC50 [1]	Emax [2]	EC50 [2]
Cc1ccc(C2CCCCC2)c(OC2(C(=O)NS(=O)(=O)c3cccc(N4CCC(C(=O)O)CC4)n3)CC2)c1 [Example 2-6, 1-(6-(N-(1-(2-cyclohexyl-5-methylphenoxy)cyclopropanecarbonyl)sulfamoyl)pyridin-2-yl)piperidine-4-carboxylic acid]	62%	131 nM	34%	4560 nM
Cc1ccc(C2CCCCC2)c(OC2(C(=O)NS(=O)(=O)c3cccc(N4CCC(C(=O)OC5CCCC5)CC4)n3)CC2)c1 [Example 2-7]	63%	16 nM	389%	730 nM
Cc1ccc(C2CCCCC2)c(OC2(C(=O)NS(=O)(=O)c3cccc(N4CCC(C)(N)CC4)n3)CC2)c1 [Example 2-9, N-((6-(4-Amino-4-methylpiperidin-1-yl)pyridin-2-yl)sulfonyl)-1-(2-cyclohexyl-5-methylphenoxy)cyclopropanecarboxamide]	121%	103 nM	253%	2570 nM
Cc1ccc(C2CCCCC2)c(OC2(C(=O)NS(=O)(=O)c3cccc(N4CCC(C)(C(N)=O)CC4)n3)CC2)c1 [Example 2-14, 1-(6-(N-(1-(2-cyclohexyl-5-methylphenoxy)cyclopropanecarbonyl)sulfamoyl)pyridin-2-yl)-4-methylpiperidine-4-carboxamide]	75%	31 nM	319%	2780 nM
Cc1ccc(C2CCCCC2)c(OC2(C(=O)NS(=O)(=O)c3cccc(N4CCC(N)(C(F)(F)F)CC4)n3)CC2)c1 [Example 2-17, N-((6-(4-Amino-4-(trifluoromethyl)piperidin-1-yl)pyridin-2-yl)sulfonyl)-1-(2-cyclohexyl-5-methylphenoxy)cyclopropanecarboxamide]	90%	4 nM	503%	730 nM
COC1CN(c2cccc(S(=O)(=O)NC(=O)C3(Oc4cc(C)ccc4C4CCCCC4)CC3)n2)C1 [Example 2-18, 1-(2-Cyclohexyl-5-methylphenoxy)-N-((6-(3-methoxyazetidin-1-yl)pyridin-2-yl)sulfonyl)cyclopropanecarboxamide]	91%	21 nM	597%	1580 nM
Cc1ccc(C2CCCCC2)c(OC2(C(=O)NS(=O)(=O)c3cccc(N4CC5(CCN5)C4)n3)CC2)c1 [Example 2-21, N-((6-(1,6-Diazaspiro[3.3]heptan-6-yl)pyridin-2-yl)sulfonyl)-1-(2-cyclohexyl-5-methylphenoxy)cyclopropanecarboxamide]	99%	93 nM	252%	3390 nM

Further compounds by falling EC50 [1], results first:

MTECC24 CFHBEC-Amax % [1]	EC50 [1]	Emax [2]	EC50 [2]	Structure (SMILES)
122%	198 nM	354%	2540 nM	Cc1ccc(C2CCCCC2)c(OC2(C(=O)NS(=O)(=O)c3cccc(N4CCC5(CCCC5N)CC4)n3)CC2)c1 (stereo not shown) [Example 2-20, N-((6-(1-Amino-8-azaspiro[4.5]decan-8-yl)pyridin-2-yl)sulfonyl)-1-(2-cyclohexyl-5-methylphenoxy)cyclopropanecarboxamide]
60%	63 nM	716%	540 nM	Cc1ccc(C2CCCCC2)c(OC2(C(=O)NS(=O)(=O)c3cccc(N4CCC(C)(NC(=O)OC(C)(C)C)CC4)n3)CC2)c1 [Example 2-8, Tert-butyl (1-(6-(N-(1-(2-cyclohexyl-5-methylphenoxy)cyclopropanecarbonyl)sulfamoyl)pyridin-2-yl)-4-methylpiperidin-4-yl)carbamate]
120%	61 nM	326%	2610 nM	Cc1ccc(C2CCCCC2)c(OC2(C(=O)NS(=O)(=O)c3cccc(N4CCC(N)(CF)CC4)n3)CC2)c1 [Example 2-19, N-((6-(4-Amino-4-(fluoromethyl)piperidin-1-yl)pyridin-2-yl)sulfonyl)-1-(2-cyclohexyl-5-methylphenoxy)cyclopropanecarboxamide]
77%	20 nM	286%	2590 nM	Cc1ccc(C2CCCCC2)c(OC2(C(=O)NS(=O)(=O)c3cccc(N4CCC(C)(NC(=O)NC5CC5)CC4)n3)CC2)c1 [Example 2-11, 1-(2-Cyclohexyl-5-methylphenoxy)-N-((6-(4-(3-cyclopropylureido)-4-methylpiperidin-1-yl)pyridin-2-yl)sulfonyl)cyclopropanecarboxamide]
90%	17 nM	674%	2240 nM	Cc1ccc(C2CCCCC2)c(OC2(C(=O)NS(=O)(=O)c3cccc(N4CCC(CO)(NC(=O)OC(C)(C)C)CC4)n3)CC2)c1 [Example 2-22, Tert-butyl (1-(6-(N-(1-(2-cyclohexyl-5-methylphenoxy)cyclopropanecarbonyl)sulfamoyl)pyridin-2-yl)-4-(hydroxymethyl)piperidin-4-yl)carbamates]
101%	12 nM	642%	2520 nM	Cc1ccc(C2CCCCC2)c(OC2(C(=O)NS(=O)(=O)c3cccc(N4CC(C)(O)C4)n3)CC2)c1 [Example 2-16, 1-(2-Cyclohexyl-5-methylphenoxy)-N-((6-(3-hydroxy-3-methylazetidin-1-yl)pyridin-2-yl)sulfonyl)cyclopropanecarboxamide]
78%	8 nM	604%	1530 nM	Cc1ccc(C2CCCCC2)c(OC2(C(=O)NS(=O)(=O)c3cccc(N4CCCC(NC(=O)OC(C)(C)C)C4)n3)CC2)c1 (stereo not shown) [Example 2-12, Tert-butyl (1-(6-(N-(1-(2-cyclohexyl-5-methylphenoxy)cyclopropanecarbonyl)sulfamoyl)pyridin-2-yl)piperidin-3-yl)carbamate]
56%	3 nM	327%	1810 nM	Cc1ccc(C2CCCCC2)c(OC2(C(=O)NS(=O)(=O)c3cccc(N4CCC(C)(NC(=O)C5CC5)CC4)n3)CC2)c1 [Example 2-10, 1-(2-Cyclohexyl-5-methylphenoxy)-N-((6-(4-(cyclopropanecarboxamido)-4-methylpiperidin-1-yl)pyridin-2-yl)sulfonyl)cyclopropanecarboxamide]
101%	3 nM	284%	940 nM	Cc1ccc(C2CCCCC2)c(OC2(C(=O)NS(=O)(=O)c3cccc(N4CCC(C)(C#N)CC4)n3)CC2)c1 [Example 2-15, N-((6-(4-cyano-4-methylpiperidin-1-yl)pyridin-2-yl)sulfonyl)-1-(2-cyclohexyl-5-methylphenoxy)cyclopropanecarboxamide]
